Results published in patent US11975003B2, “Methods and compositions for treatment of Zika virus infection” (priority 2016, dated 2024).

What was measured:
[1] = test system: Zika virus Malaysia P 6-740; assay: CPE reduction assay (neutral red uptake); type: cell-based
Protocol: (§1) The compounds were administered at a range of concentrations up to 100 μg/ml. Compounds were prepared in MEM just prior to testing. Inhibition of virus replication was determined by microscopic examination of the infected cells for cytopathic effect, increase of neutral red (NR) dye uptake (colorimetric determination), and virus yield reduction. Uninfected cells treated with a compound were assayed as above for cytotoxicity control. The EC50, EC90 and SI (selectivity index) values were determined in Vero76, Huh7 and RD cells as analyzed by the neutral red uptake dye assay and virus yield reduction assays. The results are presented from 3 or more independent experiments (standard deviations not shown. Three Zika virus strains were used in this in vitro study, Malaysia strain P 6-740, Uganda strain MR-766 and Puerto Rico strain PRVABC-59. Cells were maintained under standard conditions.

[2] = test system: Zika virus Puerto Rico PRVABC59; assay: CPE reduction assay (neutral red uptake); type: cell-based; details: Puerto Rico PRVABC59
Protocol: as §1

Zika virus Uganda MR 766 = assay: CPE reduction assay (neutral red uptake); type: cell-based
Protocol: as §1

[3] = test system: Zika virus (Malaysia, strain P 6-740); assay: Murine Zika virus model, treatment begun 1, 3, 5 or 7 dpi (Example 5); type: in vivo, AG129 mice; details: for number of mice showing no disease signs: n=8; for weight change in grams between days 7 and 13 post-infection vs placebo: FIG. 10B
Protocol: Compound A was administered IM at 300 mg/kg/day in a volume of 0.05 ml saline.
Disease signs were assessed daily for each mouse and the date the disease sign was first noted was recorded. The graph represents the number of mice observed with each disease sign. […] As the time of administration of Compound A post-infection increased, the number of mice displaying no disease signs decreased (2 mice at 3 dpi, 1 mouse at 5 dpi and 0 mice at 7 dpi) and the total number of disease signs increased (13 disease signs at 3 dpi, 16 disease signs at 5 dpi and 23 disease signs at 7 dpi).

[4] = Phase 1 study of intramuscular injection in healthy human subjects (Example 8); type: in vivo; details: human, in vivo
Protocol: A phase 1 double-blind, placebo-controlled, dose-ranging study was conducted to evaluate the safety, tolerability, and pharmacokinetics of Compound A administered by intramuscular injection (IM) in healthy human subjects. The study was conducted in two parts. In part 1, subjects received a single dose of Compound A at doses from 0.3 mg/kg to 10 mg/kg via IM administration. Additionally, the effect of lidocaine administration (co-administered with Compound A at a dose of 4 mg/kg) on alleviation of pain associated with injection was also evaluated. In part 2, subjects received Compound A for 7 days (q.d.) at doses of 2.5 mg/kg/day, 5 mg/kg/day or 10 mg/kg/day via IM administration. 50 subjects received single doses of Compound A in part 1 (12 subjects received placebo) and 23 subjects received multiple doses of Compound A in part 2 (6 subjects received placebo). All planned cohorts were completed.
Eligible subjects were adults of either sex ages 18 to 50. […]
The plasma concentration time profile of Compound A was determined for each subject in part 2 (results expressed as ng/ml Compound A). Blood samples were taken on Day 1 prior to administration of the first dose and at 1, 2, 3, 4, 6, 8, 10, 12, 16 and 24 hours after administration of the first dose of Compound A and on Day 7 prior to administration of the last dose of Compound A and at 1, 2, 3, 4, 6, 8, 10, 12, 16, 24, 36, 48, 72 and 96 hours after administration of the last dose of Compound A. Plasma samples were obtained from the blood samples and the concentration of Compound A determined.

Cl.Nc1ncnc2c([C@@H]3N[C@H](CO)[C@@H](O)[C@H]3O)c[nH]c12 [Compound A]
CPE red. assay EC50 ([1]; Huh-7 cells): 5.5 ± 0.1 µg/mL | CPE red. assay EC50 ([1]; Vero76 cells): 11.5 ± 4.4 µg/mL | CPE red. assay EC50 ([2]; Huh-7 cells): 4.7 ± 0.6 µg/mL | CPE red. assay EC50 ([2]; RD cells): 4.7 ± 2.2 µg/mL | CPE red. assay EC50 ([2]; Vero76 cells): 3.8 ± 2.5 µg/mL | CPE red. assay EC50 (Zika virus Uganda MR 766; Huh-7 cells): 5.7 ± 0.9 µg/mL | CPE red. assay EC50 (Zika virus Uganda MR 766; RD cells): 4.4 ± 1.3 µg/mL | CPE red. assay EC50 (Zika virus Uganda MR 766; Vero76 cells): 11.7 ± 4.7 µg/mL | time of first administration at which treatment is effective ([3]; 300 mg/kg/day IM): up to 5 days post-infection | survival vs placebo ([3]; 300 mg/kg/day IM bid x 8 days, begun 1 dpi, p≤0.001): statistically significant improvements in survival | viral RNA levels in serum on day 5 post-infection ([3]; 300 mg/kg/day IM, begun 1, 3, 5 or 7 dpi, FIG. 10C): not significantly decreased | total number of disease signs ([3]; 300 mg/kg/day IM, begun 1 dpi): 6 disease signs | number of mice showing no disease signs ([3]; 300 mg/kg/day IM, begun 1 dpi): 6 mice | weight change in grams between days 7 and 13 post-infection vs placebo ([3]; 300 mg/kg/day IM, begun 1 dpi, p≤0.001): statistically significant decrease in weight loss | percent weight change ([3]; 300 mg/kg/day IM, begun 1 dpi, through 27 dpi, FIG. 10A): essentially no weight change | mortality curve and survival vs placebo ([3]; 300 mg/kg/day IM, begun 3 dpi): delayed the mortality curve of infected mice and increased survival | total number of disease signs ([3]; 300 mg/kg/day IM, begun 3 dpi): 13 disease signs | percentage weight loss ([3]; 300 mg/kg/day IM, begun 3 dpi, FIG. 10A): statistically significant decreases in percentage weight loss | number of mice showing no disease signs ([3]; 300 mg/kg/day IM, begun 3 dpi): 2 mice | weight change in grams between days 7 and 13 post-infection vs placebo ([3]; 300 mg/kg/day IM, begun 3 dpi, p≤0.001): statistically significant decrease in weight loss | mortality curve and survival vs placebo ([3]; 300 mg/kg/day IM, begun 5 dpi): delayed the mortality curve of infected mice and increased survival | total number of disease signs ([3]; 300 mg/kg/day IM, begun 5 dpi): 16 disease signs | percentage weight loss ([3]; 300 mg/kg/day IM, begun 5 dpi, FIG. 10A): statistically significant decreases in percentage weight loss | number of mice showing no disease signs ([3]; 300 mg/kg/day IM, begun 5 dpi): 1 mouse | total number of disease signs ([3]; 300 mg/kg/day IM, begun 7 dpi): 23 disease signs | number of mice showing no disease signs ([3]; 300 mg/kg/day IM, begun 7 dpi): 0 mice | clinically significant laboratory abnormalities [4]: no clinically significant laboratory abnormalities occurred | exposure vs dose [4]: dose-proportional and linear with increasing dose | plasma PK profile on co-administration of lidocaine ([4]; 4 mg/kg): without altering the plasma PK profile
